{"source": "patent US20230158049A1", "about": "“COMPOSITIONS AND METHODS FOR TREATING VIRUSES” (University of Virginia Patent Foundation, priority 2020, published 2023)", "key": {"[1]": {"molecular_target": "3C-like main protease (3CLpro) or Nsp5 (Severe acute respiratory syndrome coronavirus 2, UniProt P0DTD1)", "conditions": "computational screening (Wu et al.); cited from earlier work"}, "[2]": {"conditions": "four patients, 100 mg twice daily or daily"}}}
{"smiles": "C[C@H]1c2cccc(O)c2C(=O)C2=C(O)[C@]3(O)C(=O)C(C(N)=O)=C(O)[C@@H](N(C)C)[C@@H]3[C@@H](O)[C@@H]21", "note": "[doxycycline]", "values": [{"measurement": "retesting for SARS-CoV-2", "setting": "SARS-CoV-2; Example 2: after 3 weeks", "value": "negative"}, {"measurement": "clinical course (fever, symptoms)", "setting": "SARS-CoV-2; Example 2: person, pulmonary sarcoidosis, doxycycline 100 mg orally twice a day for 10 days", "value": "Fever resolved and they remained asymptomatic"}, {"measurement": "repeat nasopharyngeal swab testing for SARS-CoV-2 RNA", "setting": "SARS-CoV-2; Example 3: on 9 May 2020", "value": "negative"}, {"measurement": "lung infiltrates on chest X-ray", "setting": "SARS-CoV-2; Example 4: after 14 days of doxycycline therapy", "value": "resolved"}, {"measurement": "CRP", "setting": "SARS-CoV-2; Example 4: by day 8 (CRP 13 by day 3, before doxycycline)", "value": 1.0}, {"measurement": "supplemental oxygen requirement", "setting": "SARS-CoV-2; Example 4: person, doxycycline 100 mg twice daily from hospital day 4, by day 8", "value": "no longer required oxygen"}, {"measurement": "overall clinical outcome of the four patients", "setting": "SARS-CoV-2; [2]", "value": "All improved"}, {"measurement": "progression to severe disease", "setting": "SARS-CoV-2; [2]", "value": "None progressed to severe disease"}, {"measurement": "safety issues with use", "setting": "SARS-CoV-2; four patients, standard doses for 5 to 14 days", "value": "No safety issues were noted"}, {"measurement": "3CLpro binding by computational screening", "setting": "[1]", "value": "can bind to 3CLpro"}]}
{"smiles": "CC[C@H]1OC(=O)[C@H](C)[C@@H](O[C@H]2C[C@@](C)(OC)[C@@H](O)[C@H](C)O2)[C@H](C)[C@@H](O[C@@H]2O[C@H](C)C[C@H](N(C)C)[C@H]2O)[C@](C)(O)C[C@@H](C)CN(C)[C@H](C)[C@@H](O)[C@]1(C)O", "note": "[azithromycin]", "values": [{"measurement": "clinical course on azithromycin before the switch to doxycycline", "setting": "SARS-CoV-2; Example 4 (case 4): hospital days 1-3, with ceftriaxone", "value": "several days of worsening"}]}
